For experiment [1], the target named is T1, β2-adrenergic receptor (β2AR) (Homo sapiens, UniProt P07550). Nature of the experiment: Dual receptor-specific antagonist screening (LOPAC), epinephrine response. Type of experiment: cell-based. The settings on record: compound 1 microM for one hour, then cocktail of epinephrine and histamine. The arrangement: A431 cells endogenously express both PAR1 and β2AR; endogenous in cells; host or cells: A431 (human epidermoid carcinoma), quiescent after serum starvation.
T1 sequence (P07550 whole entry): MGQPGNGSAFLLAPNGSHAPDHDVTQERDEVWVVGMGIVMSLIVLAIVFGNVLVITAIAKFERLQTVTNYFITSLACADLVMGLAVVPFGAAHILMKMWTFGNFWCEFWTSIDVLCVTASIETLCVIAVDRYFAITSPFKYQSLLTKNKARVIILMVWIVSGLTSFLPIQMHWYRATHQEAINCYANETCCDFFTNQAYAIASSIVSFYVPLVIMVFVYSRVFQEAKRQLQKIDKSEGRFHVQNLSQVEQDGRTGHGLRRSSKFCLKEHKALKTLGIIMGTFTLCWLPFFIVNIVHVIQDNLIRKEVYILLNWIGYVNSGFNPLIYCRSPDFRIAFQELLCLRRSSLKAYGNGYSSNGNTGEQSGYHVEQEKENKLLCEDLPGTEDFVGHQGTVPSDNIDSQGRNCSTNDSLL

Experiment [2] deals with T2, histamine receptor subtype 1 (H1R) (Homo sapiens, UniProt P35367). In words: Dual receptor-specific antagonist screening (LOPAC), histamine response. Type of experiment: cell-based. More on the design: endogenous in cells; host or cells: A431 (human epidermoid carcinoma), quiescent after serum starvation.
T2 sequence (P35367 whole entry): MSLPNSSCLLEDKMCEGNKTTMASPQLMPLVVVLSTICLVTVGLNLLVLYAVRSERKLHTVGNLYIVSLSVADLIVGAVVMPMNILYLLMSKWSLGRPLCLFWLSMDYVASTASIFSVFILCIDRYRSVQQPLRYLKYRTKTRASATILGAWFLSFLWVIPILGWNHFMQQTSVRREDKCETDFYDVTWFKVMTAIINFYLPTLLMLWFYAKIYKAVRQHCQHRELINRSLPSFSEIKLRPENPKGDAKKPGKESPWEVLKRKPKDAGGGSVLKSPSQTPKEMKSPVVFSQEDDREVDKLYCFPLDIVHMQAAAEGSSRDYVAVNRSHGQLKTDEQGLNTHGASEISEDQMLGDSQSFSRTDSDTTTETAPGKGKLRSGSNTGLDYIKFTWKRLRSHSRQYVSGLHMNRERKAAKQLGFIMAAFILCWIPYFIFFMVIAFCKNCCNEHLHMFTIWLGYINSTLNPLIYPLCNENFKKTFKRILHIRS
Experiment [3] concerns the target T2, histamine receptor subtype 1 (H1R). The source says: (§1) Corning® Epic® wavelength interrogation system was used.
To test this possibility, a desensitization assay was used.

Experiment [4] deals with T1, β2-adrenergic receptor (β2AR). The conditions noted are these: co-stimulation with 2 nM epinephrine and 1 μM histamine; high doses.
Experiment [5] deals with T2, histamine receptor subtype 1 (H1R). The conditions noted are these: quiescent A431 cells.
Experiment [6] deals with endogenous receptors in A431 cells. Nature of the experiment: LOPAC library agonist screening with biosensor cellular assay (DMR). The experiment is classed as cell-based, human. The conditions noted are these: A431 cells; compound at 1 microM; real time kinetic. The procedure:
as §1
Furthermore, a ligand-induced DMR is a real time kinetic response containing many useful parameters (e.g., phases, amplitudes and kinetics) for analyzing ligand pharmacology. The LOPAC library was used to screen agonists for endogenous receptors in A431 cells using real time kinetic measurements.
First, the response in terms of wavelength shift between before and 2 min after stimulation was calculated.
Second, the responses in terms of wavelength shift between before and 50 min after stimulation were calculated.
Third, the responses in terms of wavelength shift between 2 min and 50 min after stimulation were calculated. The difference in resonant wavelength between the two time points was plotted as a function of compounds (FIG. 8).

Experiment [7] has as its target T3, protease activated receptor subtype 1, PAR1 (Homo sapiens, UniProt P25116).
T3 construct: A431 cells endogenously express both PAR1 and β2AR; endogenous in cells; host or cells: A431 (human epidermoid carcinoma)
T3 sequence (P25116 22-425): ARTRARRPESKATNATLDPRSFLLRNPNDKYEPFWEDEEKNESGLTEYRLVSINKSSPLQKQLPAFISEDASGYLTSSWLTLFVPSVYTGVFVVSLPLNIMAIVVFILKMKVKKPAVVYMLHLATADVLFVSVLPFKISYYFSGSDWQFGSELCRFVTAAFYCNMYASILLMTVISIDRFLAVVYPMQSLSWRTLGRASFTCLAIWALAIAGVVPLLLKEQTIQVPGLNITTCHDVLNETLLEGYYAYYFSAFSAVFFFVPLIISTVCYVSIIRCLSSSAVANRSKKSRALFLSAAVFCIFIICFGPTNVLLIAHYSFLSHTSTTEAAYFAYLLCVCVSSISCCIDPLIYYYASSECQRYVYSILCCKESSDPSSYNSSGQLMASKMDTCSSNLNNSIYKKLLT
Nature of the experiment: RWG biosensor DMR assay, SFLLR-amide stimulation of A431 cells. The settings on record: 1 micromolar. The experiment is classed as cell-based.
Description: as §1
It is widely believed that GPCR signaling proceeds through a series of highly regulated spatial and temporal events besides the production and regulations of second messengers such as Ca^2+ and cAMP. […] The label-free optical biosensors enable the measurement of an integrated cellular response relating to ligand-induced dynamic mass redistribution in cells within the detection zone of the biosensor, offering a novel readout for receptor biology and ligand pharmacology.
FIG. 2 provide examples of RWG biosensor-based cell assays against two classes of G protein-coupled receptors. […] A431 cells endogenously express both PAR1 and β2AR. […] This is consistent with the known signaling pathways mediated through each receptor individually, i.e., PAR1 activation leads to a Gq pathway, while β2AR activation leads to a Gs pathway. […] In FIGS. 2b, 2c and 2d, the error bar at each time point was also included. One possible explanation is that distinct classes of GPCRs can mediate signaling through distinct routes (e.g., “channeling” or “tunneling”), and the cells can respond synergistically to co-stimulation with two agonists targeting two different receptors.

“Also recorded” adds a separate entry of the source.

For `NCCc1c[nH]cn1` [histamine], in experiment [1], the “effect on the epinephrine response in the co-stimulation” value is given as “but not to epinephrine”. For the same compound, the “effect on the histamine response in the co-stimulation” value in experiment [2] was “complete desensitization”. Also, in experiment [3], the “Hill slope for inhibition of the histamine response” value was 1.4 and the “effect of pretreatment on the histamine response” value was “completely inhibited”. The “effect of pretreatment on the epinephrine response” value in experiment [4] was “slightly attenuated”. In addition, in experiment [5], the “type of DMR (optical) signal induced” value was “dose-dependent and saturable Gq-type optical signal”. Moreover, the “Hill coefficient of the histamine saturation curve” value in experiment [5] (n=6) is reported as 1.87. The “ligand-induced DMR signal in agonist screening” value in experiment [6] was “biphasic Gq-type DMR signal; also recorded: Gq-like DMR signal”.

As for SFLLR-amide, the “type of DMR signal induced” value in experiment [7] was “Gq-type DMR signal”.

Values taken from US8759013B2, “Dual-target biosensor cell assays” (Corning Incorporated, priority 2008, dated 2014).
